Active and inactive are the calls of the source.
Assays:
[1] = molecular target: T1, Friend leukemia integration 1 transcription factor (Homo sapiens) (UniProt Q01543); assay: Binding affinity to Fli-1 in HEL cells assessed as increase in thermal stability at 0.4 uM preincubated for 1 hr followed by heating at 40 to 60 degreeC by CETSA assay; format: cell-based
T1 sequence (whole entry): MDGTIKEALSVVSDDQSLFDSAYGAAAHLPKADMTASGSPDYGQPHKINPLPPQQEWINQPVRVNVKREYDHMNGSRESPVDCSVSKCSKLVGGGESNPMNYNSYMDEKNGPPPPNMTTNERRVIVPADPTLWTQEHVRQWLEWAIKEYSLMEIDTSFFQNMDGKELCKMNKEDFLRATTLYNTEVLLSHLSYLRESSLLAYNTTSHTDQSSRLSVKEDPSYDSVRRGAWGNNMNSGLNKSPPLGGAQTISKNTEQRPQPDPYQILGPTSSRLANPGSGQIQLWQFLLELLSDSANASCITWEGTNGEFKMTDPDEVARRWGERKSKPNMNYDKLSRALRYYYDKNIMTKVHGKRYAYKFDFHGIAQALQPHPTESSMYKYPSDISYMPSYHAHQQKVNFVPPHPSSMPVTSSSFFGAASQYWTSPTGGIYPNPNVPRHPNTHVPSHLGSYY

HEL [2] = assay: Induction of apoptosis in HEL cells assessed as downregulation of PARP expression at 0.1 to 0.4 uM incubated for 48 hrs by Western blot analysis; format: functional, cell-based; conditions: Homo sapiens, dose 0.1-0.4 µM
[3] = molecular target: T1, Friend leukemia integration 1 transcription factor (Homo sapiens); assay: Inhibition of Fli-1 in HEL cells by Western blot analysis; format: cell-based; conditions: dose 0.1-0.4 µM
HEL [4] = assay: Induction of apoptosis in HEL cells assessed as upregulation of cleaved caspase-9 expression at 0.1 to 0.4 uM incubated for 48 hrs by Western blot analysis; format: functional, cell-based; conditions: Homo sapiens, dose 0.1-0.4 µM
HEL [5] = assay: Induction of apoptosis in HEL cells assessed as upregulation of cleaved caspase-3 expression at 0.1 to 0.4 uM incubated for 48 hrs by Western blot analysis; format: functional, cell-based; conditions: Homo sapiens, dose 0.1-0.4 µM
HEL [6] = assay: Induction of apoptosis in HEL cells assessed as upregulation of cleaved PARP expression at 0.1 to 0.4 uM incubated for 48 hrs by Western blot analysis; format: functional, cell-based; conditions: Homo sapiens, dose 0.1-0.4 µM
HEL [7] = assay: Induction of apoptosis in HEL cells assessed as downregulation of caspase-9 expression at 0.1 to 0.4 uM incubated for 48 hrs by Western blot analysis; format: functional, cell-based; conditions: Homo sapiens, dose 0.1-0.4 µM
HEL [8] = assay: Induction of apoptosis in HEL cells assessed as downregulation of caspase-3 expression at 0.1 to 0.4 uM incubated for 48 hrs by Western blot analysis; format: functional, cell-based; conditions: Homo sapiens, dose 0.1-0.4 µM

COc1cc(OC)c2c(c1)O[C@@]1(c3ccc(OCCCCCN4CCN(C)CC4)cc3)[C@H](c3ccccc3)C[C@@H](O)[C@@]21O (racemic; form 2)
active: Activity [1] | Activity (HEL [2]) | inhibition [3] Dose-Dependent Effect | Activity (HEL [4]) | Activity (HEL [5]) | Activity (HEL [6]) | Activity (HEL [7]) | Activity (HEL [8])

— ChEMBL document CHEMBL5357031, “Design and Synthesis of Cytotoxic Water-Soluble Rocaglaol Derivatives against HEL Cells by Inhibiting Fli-1” (J Nat Prod, 2024)
